Experimental data reported in ChEMBL document CHEMBL4251729, “Novel Triterpenone for Treatment of Viral Diseases-HIV Inhibitors” (ACS Med Chem Lett, 2018).

Columns and labels:
[1] = system: Human immunodeficiency virus 1; assay: Antiviral activity against HIV1 92HT599 infected in human MT2 cells assessed as reduction in p24 production in presence of 40% serum by ELISA; format: functional, organism-based; settings: Human immunodeficiency virus 1, 92HT599, MT2
[2] = system: Human immunodeficiency virus 1; assay: Antiviral activity against HIV1 92HT599 infected in human MT2 cells assessed as reduction in p24 production in absence of serum by ELISA; format: functional, organism-based
[3] = Human immunodeficiency virus 1, 92HT599, MT2

CC(C)C1=C2[C@H]3CC[C@@H]4[C@@]5(C)CC[C@H](OC(=O)[C@H]6C[C@@H](C(=O)O)C6(C)C)C(C)(C)[C@@H]5CC[C@@]4(C)[C@]3(C)CC[C@@]2(c2ncc(-c3ccc(Cl)cc3)n2CCN(C)C)CC1=O [listing 1 of 2 here]
IC50 [1]: > 50 nM | IC50 [2]: < 10 nM

CC(C)C1=C2[C@H]3CC[C@@H]4[C@@]5(C)CC[C@H](OC(=O)[C@H]6C[C@@H](C(=O)O)C6(C)C)C(C)(C)[C@@H]5CC[C@@]4(C)[C@]3(C)CC[C@@]2(c2nnc(-c3ccc(Cl)cc3)o2)CC1=O
IC50 [1]: < 10 nM | IC50 [2, 3]: < 10 nM

CC(C)C1=C2[C@H]3CC[C@@H]4[C@@]5(C)CC[C@H](OC(=O)[C@H]6C[C@@H](C(=O)O)C6(C)C)C(C)(C)[C@@H]5CC[C@@]4(C)[C@]3(C)CC[C@@]2(c2ncc(-c3ccc(F)cc3)[nH]2)CC1=O
IC50 [1]: > 50 nM | IC50 [2, 3]: < 10 nM

CC(C)C1=C2[C@H]3CC[C@@H]4[C@@]5(C)CC[C@H](OC(=O)[C@H]6C[C@@H](C(=O)O)C6(C)C)C(C)(C)[C@@H]5CC[C@@]4(C)[C@]3(C)CC[C@@]2(c2ncc(-c3ccc(Cl)cc3)n2CCN(C)C)CC1=O [listing 2 of 2 here]
IC50 [2, 3]: 10 to 50 nM

CC(C)C1=C2[C@H]3CC[C@@H]4[C@@]5(C)CC[C@H](OC(=O)[C@H]6C[C@@H](C(=O)O)C6(C)C)C(C)(C)[C@@H]5CC[C@@]4(C)[C@]3(C)CC[C@@]2(c2ncc(-c3ccccc3)[nH]2)CC1=O
IC50 [1]: 10 to 50 nM | IC50 [2, 3]: < 10 nM

CC(C)C1=C2[C@H]3CC[C@@H]4[C@@]5(C)CC[C@H](OC(=O)[C@H]6C[C@@H](C(=O)O)C6(C)C)C(C)(C)[C@@H]5CC[C@@]4(C)[C@]3(C)CC[C@@]2(c2ncc(-c3ccc(Cl)cc3)[nH]2)CC1=O
IC50 [1]: 10 to 50 nM | IC50 [2, 3]: < 10 nM
